According to patent publication US9096643B2, “Cell-protective peptides and uses thereof” (priority 2010, dated 2015):
No end group written: not given here.

Assays:
[1] = tested on: neonatal rat CMs (heart cells); test: Immunostaining for cardiac troponin I on coated surfaces; assay type: cell-based, rat (Sprague-Dawley); conditions: day 8 of cultivation, vs Az-chitosan alone, FIG. 3
Procedure: The day before cells were ready to be seeded, the surfaces in the 12-well plates were sterilized by germicidal UV illumination overnight. The PBS surrounding the surfaces was then aspirated off and 100,000 live cells were pipetted onto each surface in 100 μL of culture media. These surfaces were left in the incubator for 20 to 30 min to allow the cells to begin to adhere, and then supplemented with 1 mL of warm CM media. The cells were cultivated for 8 days, with 100% culture media change every 2-3 days. The initial seeding density of heart cells on peptide-chitosan coated surfaces was 88 cells/mm^2. […] Each type of surface was created in triplicate.
The immunostaining against cardiac troponin I was performed on cells fixed with 4 w/v % paraformaldehyde (PFA, Sigma). The samples were submersed in a blocking solution composed of 10% normal horse serum (NHS, Vector Laboratories) in PBS for 40 min at room temperature. This solution was removed and the sample was submersed in a solution containing primary antibody for 1 hour at 37° C. […] Each sample was made in triplicate and five pictures were taken of each surface to have an adequate representation for quantification. The numbers of nuclei were determined by counting the number of DAPI stained nuclei using the cell counting plugin on ImageJ. The number of CMs was determined by counting the number of successfully stained Troponin I cells.

human iPS cells BJ1D [2] = test: iPS cell dose-response, CFDA-Live/PI-Dead live cell count; assay type: cell-based; conditions: 50 μM soluble peptide, passage 5, vs PBS, p=0.028, FIG. 10
Procedure: The human iPS cells (BJ1D and 0901B) were obtained from the Ontario iPSC Facility and used following the hiPS cell research guidelines of the University of Toronto as described by Hotta et al. Nat. Protoc. 4, 1828-1844 (2009)), unless specified otherwise. Cells were cultured on a feeder layer of MEF cells (Mount Sinai Hospital Toronto, inactivated with 10 μg/ml mitomycin C and seeded at 1.8×10^5 per 3.5 cm dish). For single cell cultures, hiPS cell colonies were dissociated in 0.25% Trypsin-EDTA (Invitrogen) for 5 min, followed by trituration with a pipette. To ensure a single-cell suspension, the dissociated cells were passed through a 40 μm cell strainer (BD Falcon) and seeded onto MEF plates at 10 cells/ml, 10 cm plates. Cells were allowed to grow for 7 days and the total number of colonies was counted. […] Cells were analyzed after 5 passages in continuous treatment with 50 μM QHREDGS, 50 μM DGQESHR, or PBS, unless specified otherwise.
Human iPS cells were treated for 5 passages and stained for CFDA-Live/PI-Dead as described in Rask et al. J. Biomed. […] Live cells were counted using the cell counter plug in for ImageJ Immunohistochemistry was performed as described above (Rask et al., ibid). […]
To determine the optimal concentration of QHREDGS for iPSC expansion, a dose-response experiment was performed. […] Live cells were counted using the cell counter plug in for ImageJ.

human iPS cells 0901B = test: iPS cell apoptosis, Apo-ONE Caspase 3/7; assay type: cell-based; conditions: 50 μM, five passages, vs PBS and scrambled peptide, FIG. 12B
Procedure: (§1) Human iPS cells were treated for 5 passages and levels of apoptosis were measured 3 days after passaging using the Apo-ONE Homogeneous Caspase assay (Promega) according to manufacturers instructions. The levels of Caspase 3/7 activation were proportional to levels of fluorescence. All statistical analyses were performed using the two-tailed student t-test assuming unequal variance. p<0.05 denote statistical significance.
(§2) IPS cells, BJ1D or 0901B, were treated with 5 μM or 50 μM of QHREDGS peptide, or 50 μM DGQESHR scrambled peptide in PBS with a PBS treated control for five passages and assayed for apoptosis using the APO One Caspase 3/7 system. The levels of Caspase 3/7 activation are proportional to fluorescence. […] Solid bars represent a statistical significance, p<0.05.

human iPS cells BJ1D [3] = test: iPS cell apoptosis, Apo-ONE Caspase 3/7; assay type: cell-based; conditions: 50 μM, five passages, vs PBS and scrambled peptide, FIG. 12A
Procedure: as §1, §2

[4] = tested on: Rat neonatal cardiomyocytes; test: Hydrogen peroxide treatment, Trypan blue viability (monolayer); assay type: cell-based; conditions: 500 μM peptide 1.5 hr, 100 μM H2O2 10 min, FIG. 5A
Procedure: Rat neonatal cardiomyocytes were incubated for 1.5 hr with 500 μM QHREDGS, scrambled (scram) QHREDGS peptide (DGQESHR), or PBS control (PBS); 200 nM ang 1 or its matched buffer control [0.1% bovine serum albumin (BSA) in PBS] in the culture medium. The culture medium consisted of Dulbecco's Modified Eagle's Medium (DMEM) with 0.5% BSA and cytosine-β-D-arabinofuranoside (anti-proliferative). Reactive oxygen species were increased by addition of 100 μM H2O2 for 10 min (37° C., 5% CO2) (N=6/group). Cell viability was measured using a Trypan blue stain. Trypan blue dye is impermeable to viable cells, but enters dead/damaged cells with impaired membrane integrity, staining cells blue.

Substance | percentage of troponin I positive cells [1] | number of viable human iPS cells (human iPS cells BJ1D [2]) | Caspase 3/7 activity (human iPS cells 0901B) | Caspase 3/7 activity (human iPS cells BJ1D [3]) | cardiomyocyte viability after exposure to H2O2 [4]
Az-chitosan-QHREDGS: QHREDGS peptide covalently conjugated to Az-chitosan by EDC chemistry (also: covalently conjugated to Az-chitosan by EDC chemistry, site not given here) | increase in the percentage of troponin I positive cells | – | – | – | –
QHREDGS (angiopoietin 1 peptide) | – | significant increase | significant reduction of Caspase 3/7 activity | significant reduction of Caspase 3/7 activity | maintain cardiomyocyte viability
